Measured values as given in US20060069132A1, “Azolecarboxamide herbicides” (priority 2004, published 2006).

Experiments:
velvetleaf = test: Test A pre-/postemergence herbicide test; type: in vivo, Abutilon theophrasti
In short: (§1)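 Sandy loam soil given preemergence directed spray; plants at 2 to 10 cm, one- to two-leaf stage, sprayed to runoff postemergence, compounds in non-phytotoxic solvent with surfactant. Injury rated visually versus untreated controls after about ten greenhouse days, 0 (no effect) to 100 (complete control); dash means not tested.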

lambsquarters = test: Test C pre-/postemergence herbicide test; type: in vivo, Chenopodium album; conditions: for Lambsquarters plant response rating: 500 g ai/ha
In short: (§2)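 Preemergence: seeds planted and treated with compound in non-phytotoxic solvent with surfactant; postemergence: plants at 2 to 18 cm (1- to 4-leaf stage) sprayed likewise. Kept in greenhouse 12 to 14 days, then visually rated against controls, 0 (no effect) to 100 (complete control).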

barnyardgrass = test: Test A pre-/postemergence herbicide test; type: in vivo, Echinochloa crus-galli
In short: as §1

johnsongrass = test: Test C pre-/postemergence herbicide test; type: in vivo, Sorghum halepense; conditions: for Johnsongrass plant response rating: 500 g ai/ha
In short: as §2

kochia = test: Test C pre-/postemergence herbicide test; type: in vivo, Kochia scoparia; conditions: for Kochia plant response rating: 500 g ai/ha
In short: as §2

giant foxtail = test: Test A pre-/postemergence herbicide test; type: in vivo, Setaria faberi
In short: as §1

large crabgrass [1] = test: Test A pre-/postemergence herbicide test; type: in vivo, Digitaria sanguinalis
In short: as §1

corn = test: Test C pre-/postemergence herbicide test; type: in vivo, Zea mays; conditions: for Corn plant response rating: 500 g ai/ha
In short: as §2

woolly cupgrass = test: Test C pre-/postemergence herbicide test; type: in vivo, Eriochloa villosa; conditions: for Cupgrass, Woolly plant response rating: 500 g ai/ha
In short: as §2

large crabgrass [2] = test: Test C pre-/postemergence herbicide test; type: in vivo, Digitaria sanguinalis; conditions: for Crabgrass, Large plant response rating: 500 g ai/ha
In short: as §2

[3] = Postemergence, 500 g ai/ha, 0 to 100 scale, 0 no effect, 100 complete control
[4] = Postemergence, 2000 g ai/ha, 0 to 100 scale, 0 no effect, 100 complete control
[5] = Preemergence, 500 g ai/ha, visual rating, 0 to 100 scale (0 no effect, 100 complete control)
[6] = Preemergence, 2000 g ai/ha, visual rating, 0 to 100 scale (0 no effect, 100 complete control)
[7] = Postemergence, 250 g ai/ha, scale 0 to 100, 0 no effect, 100 complete control
[8] = postemergence, 125 g ai/ha, scale 0 to 100
[9] = postemergence, 62 g ai/ha, scale 0 to 100
[10] = Preemergence, 2000 g ai/ha, 0 to 100 scale, 0 no effect, 100 complete control
[11] = 125 g ai/ha, scale 0 (no effect) to 100 (complete control), visual, 12 to 14 days, preemergence
[12] = Preemergence, scale 0 to 100, 0 no effect, 100 complete control
[13] = 250 g ai/ha, scale 0 to 100 (0 no effect, 100 complete control), visual, 12 to 14 days, preemergence

Question: With `C=CCOC(=O)c1cccc(NC(=O)c2cc(C(C)(C)C)nn2CC)c1` [Compound 85] as the compound, how does the “Velvetleaf plant response rating” value (velvetleaf; [3]) read?
Answer: Its value is 30.

Question: What about the “Plant response rating, Velvetleaf” value (velvetleaf; [4]) of the same compound?
Answer: The value was 20.

Question: What about the “Velvetleaf plant response rating” value (velvetleaf; [5]) of the same compound?
Answer: Its value is 0.

Question: What about the “Velvetleaf plant response rating” value (velvetleaf; [6]) of the same compound?
Answer: The value was 0.

Question: What about the “Lambsquarters plant response rating” value (lambsquarters; Postemergence, scale 0 to 100) of the same compound?
Answer: Its value is 100.

Question: And the “Plant response rating, Lambsquarters” value (lambsquarters; [7])?
Answer: The value was 50.

Question: What about the “Plant response rating, Lambsquarters” value (lambsquarters; [8]) of the same compound?
Answer: The value was 30.

Question: What about the “Plant response rating, Lambsquarters” value (lambsquarters; [9]) of the same compound?
Answer: Its value is 10.

Question: What about the “Barnyardgrass plant response rating” value (barnyardgrass; [3]) of the same compound?
Answer: Its value is 20.

Question: What about the “Plant response rating, Barnyardgrass” value (barnyardgrass; [4]) of the same compound?
Answer: Its value is 25.

Question: What about the “Barnyardgrass plant response rating” value (barnyardgrass; [5]) of the same compound?
Answer: The value was 0.

Question: What about the “Barnyardgrass plant response rating” value (barnyardgrass; [10]) of the same compound?
Answer: The value was 0.

Question: What about the “Johnsongrass plant response rating” value (johnsongrass; Postemergence, scale 0 to 100) of the same compound?
Answer: The value was 80.

Question: What about the “Plant response rating, Johnsongrass” value (johnsongrass; [7]) of the same compound?
Answer: Its value is 20.

Question: What about the “Plant response rating, Johnsongrass” value (johnsongrass; [8]) of the same compound?
Answer: Its value is 10.

Question: What about the “Plant response rating, Johnsongrass” value (johnsongrass; [9]) of the same compound?
Answer: The value was 10.

Question: And the “Kochia plant response rating” value (kochia; Postemergence, scale 0 to 100)?
Answer: Its value is 90.

Question: And the “Plant response rating, Kochia” value (kochia; [7])?
Answer: The value was 90.

Question: And the “Plant response rating, Kochia” value (kochia; [8])?
Answer: Its value is 60.

Question: And the “Plant response rating, Kochia” value (kochia; [9])?
Answer: The value was 20.

Question: What about the “Foxtail, Giant plant response rating” value (giant foxtail; [3]) of the same compound?
Answer: The value was 20.

Question: What about the “Plant response rating, Foxtail, Giant” value (giant foxtail; [4]) of the same compound?
Answer: The value was 30.

Question: And the “Foxtail, Giant plant response rating” value (giant foxtail; [5])?
Answer: The value was 0.

Question: What about the “Foxtail, Giant plant response rating” value (giant foxtail; [10]) of the same compound?
Answer: Its value is 0.

Question: And the “Crabgrass, Large plant response rating” value (large crabgrass [1]; [3])?
Answer: The value was 20.

Question: And the “Plant response rating, Crabgrass, Large” value (large crabgrass [1]; [4])?
Answer: Its value is 30.

Question: And the “Crabgrass, Large plant response rating” value (large crabgrass [1]; [5])?
Answer: Its value is 0.

Question: What about the “Crabgrass, Large plant response rating” value (large crabgrass [1]; [10]) of the same compound?
Answer: Its value is 5.

Question: And the “Corn plant response rating” value (corn; Postemergence, scale 0 to 100)?
Answer: The value was 45.

Question: What about the “Plant response rating, Corn” value (corn; [7]) of the same compound?
Answer: The value was 35.

Question: What about the “Plant response rating, Corn” value (corn; [8]) of the same compound?
Answer: Its value is 30.

Question: And the “Plant response rating, Corn” value (corn; [9])?
Answer: Its value is 30.

Question: What about the “Cupgrass, Woolly plant response rating” value (woolly cupgrass; Postemergence, scale 0 to 100) of the same compound?
Answer: The value was 85.

Question: And the “Plant response rating, Cupgrass, Woolly” value (woolly cupgrass; [7])?
Answer: The value was 80.

Question: What about the “Plant response rating, Cupgrass, Woolly” value (woolly cupgrass; [8]) of the same compound?
Answer: The value was 50.

Question: And the “Plant response rating, Cupgrass, Woolly” value (woolly cupgrass; [9])?
Answer: The value was 40.

Question: What about the “Crabgrass, Large plant response rating” value (large crabgrass [2]; Postemergence, scale 0 to 100) of the same compound?
Answer: Its value is 40.

Question: And the “Plant response rating, Crabgrass, Large” value (large crabgrass [2]; [7])?
Answer: The value was 10.

Question: And the “Plant response rating, Crabgrass, Large” value (large crabgrass [2]; [8])?
Answer: Its value is 5.

Question: And the “Plant response rating, Crabgrass, Large” value (large crabgrass [2]; [9])?
Answer: Its value is 0.

Question: What does the source list for `CCN(CC)C(=O)c1cccc(NC(=O)c2cc(C(C)(C)C)nn2CC)n1` [Compound 145]?
Answer: Velvetleaf plant response rating (velvetleaf; [3]): 30; Plant response rating, Velvetleaf (velvetleaf; [4]): 55; Velvetleaf plant response rating (velvetleaf; [6]): 90; Velvetleaf plant response rating (velvetleaf; preemergence, 500 g ai/ha, visual injury, 0 to 100 scale (0 no effect, 100 complete control)): 75; Plant response rating (0 = no effect, 100 = complete control), Lambsquarters (lambsquarters; 62 g ai/ha, preemergence): 20; Plant response rating, Lambsquarters (lambsquarters; [11]): 60; Lambsquarters plant response rating (lambsquarters; [12]): 100; Barnyardgrass plant response rating (barnyardgrass; [3]): 40; Plant response rating, Barnyardgrass (barnyardgrass; [4]): 100; Barnyardgrass plant response rating (barnyardgrass; [5]): 95; Barnyardgrass plant response rating (barnyardgrass; [6]): 100; Plant response rating (0 = no effect, 100 = complete control), Johnsongrass (johnsongrass; 62 g ai/ha, preemergence): 50; Plant response rating, Johnsongrass (johnsongrass; [11]): 65; Johnsongrass plant response rating (johnsongrass; [12]): 90; Plant response rating (0 = no effect, 100 = complete control), Kochia (kochia; 62 g ai/ha, preemergence): 20; Plant response rating, Kochia (kochia; [11]): 60; Kochia plant response rating (kochia; [12]): 80; Foxtail, Giant plant response rating (giant foxtail; [3]): 40; Plant response rating, Foxtail, Giant (giant foxtail; [4]): 60; Foxtail, Giant plant response rating (giant foxtail; [5]): 85; Foxtail, Giant plant response rating (giant foxtail; [6]): 100; Crabgrass, Large plant response rating (large crabgrass [1]; [3]): 30; Plant response rating, Crabgrass, Large (large crabgrass [1]; [4]): 85; Crabgrass, Large plant response rating (large crabgrass [1]; [5]): 70; Crabgrass, Large plant response rating (large crabgrass [1]; [6]): 90; Plant response rating (0 = no effect, 100 = complete control), Corn (corn; 62 g ai/ha, preemergence): 0; Plant response rating, Corn (corn; [11]): 0; Plant response rating, Corn (corn; [13]): 5; Corn plant response rating (corn; [12]): 20; Plant response rating (0 = no effect, 100 = complete control), Cupgrass, Woolly (woolly cupgrass; 62 g ai/ha, preemergence): 0; Plant response rating, Cupgrass, Woolly (woolly cupgrass; [11]): 0; Plant response rating, Cupgrass, Woolly (woolly cupgrass; [13]): 0; Cupgrass, Woolly plant response rating (woolly cupgrass; [12]): 40; Plant response rating, Crabgrass, Large (large crabgrass [2]; [11]): 50; Plant response rating, Crabgrass, Large (large crabgrass [2]; [13]): 80; Crabgrass, Large plant response rating (large crabgrass [2]; [12]): 80
